Measured values published in patent publication US20210121456A1, “USE OF METHYLNALTREXONE TO ATTENUATE TUMOR PROGRESSION” (Salix Pharmaceuticals, Inc., priority 2014, published 2021).

Legend:
[1] = system: subjects with advanced medical illness and opioid-induced constipation; test: Study 2: double-blind, randomized, placebo-controlled study of subcutaneous MNTX (fixed dose); assay type: in vivo, human
Protocol: A double-blind, randomized, placebo-controlled study of subcutaneous MNTX was conducted in subjects with advanced medical illness and a current history of opioid-induced constipation. To satisfy eligibility criteria for enrollment, subjects were required to be on stable doses of laxatives and opioid analgesics. In the context of the study, a stable dose of opioid analgesics was defined as no reduction in the dose of opioid analgesic of ≥50% for at least three days before the first dose of MNTX. A stable dose of laxatives was defined as having a standing laxative order (and not PRN, or as-needed) for at least three days before the first dose of MNTX. A diagnosis of constipation was provided if the subject had (a) fewer than 3 bowel movements during the previous week by history and no clinically notable laxation in the 24 hours before the first dose of MNTX, or (b) no clinical notable laxation in the 48 hours before the first dose of MNTX.
Eligible subjects were randomized to receive MNTX or placebo every other day during a 14-day, double-blind period. Subjects weighing 38 kg to <62 kg received 0.4 mL SC MNTX (8 mg) or equal volume of placebo. Subjects weighing ≥62 kg received 0.6 mL SC MNTX (12 mg) or equal volume of placebo. Injections were administered subcutaneously in either the shoulder area, buttocks, abdomen, thighs or extremities, and rescue-laxatives, enemas or manual disimpactions were not administered within 4 hours before or after each dose of test article.
The endpoint assessed was the proportion of subjects with rescue-free laxation response within 4 hours after at least two of the first four doses. Two hundred and twenty-nine (229) subjects were enrolled and evaluated, including 151 patients with advanced cancers and 78 patients with other advanced illness (e.g., cardiovascular, pulmonary or neurologic disorders). Of which 229 subjects which enrolled, 113 were randomized to the placebo group and 116 were randomized to the MNTX treatment group. Of the patients who completed the double-blind phase, 142 (placebo 69, MNTX 73) elected to proceed with a 10-week open label phase of subcutaneous MNTX at PRN dosing.

[2] = system: colectomy patients; settings: more than 500 colectomy patients, two randomized clinical trials; cited from earlier work

C[N@+]1(CC2CC2)CC[C@]23c4c5ccc(O)c4O[C@H]2C(=O)CC[C@@]3(O)[C@H]1C5.[Br-] [MNTX, (R)—N-(cyclopropylmethyl) noroxymorphone methobromide]
subjects with rescue-free laxation response within 4 hours after at least 2 of the first 4 doses ([1]; ITT population, first week, 8 or 12 mg SC QOD): 62.9% | number of rescue-free laxations within 24 hour post dosing per week ([1]; Week 1): 4.9 | number of total laxations within 24 hour post dosing per week ([1]; Week 1): 4.9 | number of rescue-free laxations within 24 hour post dosing per week ([1]; Week 2): 3.2 | number of total laxations within 24 hour post dosing per week ([1]; Week 2): 3.2 | improvement in the stool symptoms domain of the PAC-SYM ([1]; compared with the placebo group, p=0.0920): more pronounced | subjects who used enemas ([1]; double-blind period): 17% | subjects who used rescue laxatives ([1]; double-blind period): 27% | subjects who required manual disimpaction ([1]; double-blind period, either group): < 5% | opioid use ([1]; effect of MNTX administration): not affected | efficacy versus placebo for the primary and all secondary efficacy endpoints ([1]; fixed doses 8 mg or 12 mg SC QOD): statistically superior to placebo | median time to first rescue-free laxation after the first dose ([1]; in vivo): 0.8 h | subjects with rescue-free laxation within 4 hours after at least 4 of the maximum 7 doses ([1]; in vivo): 62.2% | subjects with rescue-free laxation within 4 hours of the first dose ([1]; in vivo): 69.8% | safety and perioperative analgesia [2]: safely given
